Data: patent US6746668B2, “Apo-2 ligand” (Genentech, Inc., priority 1996, dated 2004)

Columns and labels:
[1] = test system: A549 (human lung carcinoma); assay: Apoptosis by FACS, A549 cells; type: cell-based
Protocol: (§1) The 9D cells (FIG. 2B), Raji cells (FIG. 2C), and Jurkat cells (FIG. 2D) were incubated (1×10^6 cells/well) for 24 hours with a media control (left panels), Apo-2 ligand (3 μg/ml, prepared as described in Example 3) (center panels), or […], CH11 (1 μg/ml) (right panels). The cells were then washed, stained with PI and with […] (FITC)-conjugated annexin V (purchased from Brand Applications) and analyzed by flow cytometry. Cells negative for both PI and annexin V staining (quadrant 3) represent live cells; PI-negative, annexin V-positive staining cells (quadrant 4) represent early apoptotic cells; PI-positive, annexin V-positive staining cells (quadrant 2) represent primarily cells in late stages of apoptosis. […]
(§2) In the assay, 1×10^6 cells of each cell line were incubated for 24 hours with a media control, Apo-2 ligand (3 μg/ml, prepared as described in Example 3), or anti-Apo-1 monoclonal antibody, CH11 (1 μg/ml). Following the incubation, apoptosis was measured by FACS analysis, as described in Example 4.

[2] = test system: ME-180 (human cervical carcinoma); assay: Apoptosis by FACS, ME-180 cells; type: cell-based
Protocol: as §1, §2

[3] = test system: Jurkat cells (human acute T cell leukemia cell line); assay: Apoptosis by FACS (PI / FITC-annexin V), Jurkat cells; type: cell-based; conditions: 24 hours, CH11 1 μg/ml
Protocol: (§3) The effects of the Apo-2 ligand on the 9D cells, as well as on Raji cells (human Burkitt's lymphoma B cell line, ATCC CCL 86) and Jurkat cells (human acute T cell leukemia cell line, ATCC TIB 152) were further analyzed by FACS. The FACS analysis was conducted, using established criteria for apoptotic cell death, namely, the relation of fluorescence staining of the cells with two markers: (a) propidium iodide (“PI”) dye, which stains apoptotic but not live cells, and (b) a fluorescent derivative of the protein, annexin V, which binds to the exposed phosphatidylserine found on the surface of apoptotic cells, but not on live cells [Darzynkiewicz et al., Methods in Cell Biol., 41:15-38 (1994); Fadok et al., J. Immunol., 148:2207-2214 (1992); Koopman et al., Blood, 84:1415-1420 (1994)].
(§4) The 9D cells (FIG. 2B), Raji cells (FIG. 2C), and Jurkat cells (FIG. 2D) were incubated (1×10^6 cells/well) for 24 hours with a media control (left panels), Apo-2 ligand (3 μg/ml, prepared as described in Example 3) (center panels), or […], CH11 (1 μg/ml) (right panels). The cells were then washed, stained with PI and with […] (FITC)-conjugated annexin V (purchased from Brand Applications) and analyzed by flow cytometry. […]

[4] = test system: U-937 (human hystiocytic lymphoma); assay: Apoptosis by FACS, U-937 cells; type: cell-based
Protocol: as §1, §2

[5] = test system: 9D cells; assay: Time course and dose-dependence of cell death (dead/live counts, hemocytometer), 9D cells; type: cell-based, human
Protocol: To examine the time-course of the Apo-2 ligand apoptotic activity, 9D cells were incubated in microtiter dishes (5×10^4 cells/well) with a media control or Apo-2 ligand (3 μg/ml, prepared as described in Example 3) for a period of time ranging from 0 hours to 50 hours. Following the incubation, the numbers of dead and live cells were determined by microscopic examination using a hemocytometer.
To determine dose-dependency of Apo-2 ligand-induced cell death, 9D cells were incubated (5×10^4 cells/well) for 24 hours with serial dilutions of a media control or Apo-2 ligand (prepared as described in Example 3). The numbers of dead and live cells following the incubation were determined as described above. The results are illustrated in FIG. 3B. Specific apoptosis was determined by subtracting the % apoptosis in the control from % apoptosis in Apo-2 ligand treated cells. Half-maximal activation of apoptosis occurred at approximately 0.1 μg/ml (approximately 1 nM), and maximal induction occurred at about 1 to about 3 μg/ml (approximately 10 to 30 nM).

[6] = test system: MCF7 (human breast carcinoma); assay: Apoptosis by FACS, MCF7 cells; type: cell-based
Protocol: as §1, §2

[7] = test system: Raji cells (human Burkitt's lymphoma B cell line); assay: Apoptosis by FACS (PI / FITC-annexin V), Raji cells; type: cell-based; conditions: 24 hours, CH11 1 μg/ml
Protocol: as §3, §4

[8] = test system: 293 (adenovirus-transformed human embryonic kidney cells); assay: Apoptosis by FACS, 293 cells; type: cell-based
Protocol: as §1, §2

[9] = test system: Jurkat cells; assay: Internucleosomal DNA fragmentation, Jurkat cells; type: cell-based, human; conditions: 6 hours, Apo-2 ligand 3 μg/ml
Protocol: (§5) The activation of internucleosomal DNA fragmentation by Apo-2 ligand was also analyzed. Jurkat cells (left lanes) and 9D cells (right lanes) were incubated (2×10^6 cells/well) for 6 hours with a media control or Apo-2 ligand (3 μg/ml, prepared as described in Example 3), The DNA was then extracted from the cells and labeled with ^32P-ddATP using terminal transferase. The labeled DNA samples were subjected to electrophoresis on 2% agarose gels and later analyzed by autoradiography [Moore et al., Cytotechnology, 17:1-11 (1995)]. […] Such DNA fragmentation is characteristic of apoptosis [Cohen, Advances in Immunol., 50:55-85 (1991)].

[10] = test system: peripheral blood B lymphocytes; assay: Apoptosis by FACS, peripheral blood B cells; type: cell-based, human; conditions: for % apoptotic cells: 3 days, Apo-2L 3 μg/ml, mean ±SE
Protocol: Peripheral blood mononuclear cells (“PBMC”) were isolated from the blood of human donors by Ficoll density gradient centrifugation using Lymphocyte Separation Medium (LSM®, Organon Teknika). An isolated population of T cells was prepared from the PBMC by removal of B cells through surface Ig binding to an anti-Ig column and removal of monocytes through Fc receptor binding to an Ig column (R & D Systems). An isolated population of B cells was prepared from the PBMC by complement-mediated elimination of T cells reacted with the anti-CD3 antibody produced by the OKT3 myeloma (ATCC, CRL 8001) and of monocytes reacted with a monocyte-specific antibody produced by the 4F2C13 hybridoma (ATCC, HB 22). Additional monocyte removal was accomplished by adherence to plastic.
The freshly isolated peripheral blood B or T cells (1×10^6 cells/well) were cultured for 3 days in the presence of a media control or Apo-2 ligand (3 μg/ml, prepared as described in Example 3). For activation, B cells were treated simultaneously with lipopolysaccharide ([…], 1 μg/ml), and T cells were treated with phorbol myristate acetate (“PMA”, 10 ng/ml) plus ionomycin (1 μg/ml) (Sigma). For interleukin-2 (“IL-2”) pretreatment, T cells were cultured for 3-5 days in the presence of IL-2 (50 U/ml) (Genzyme) before exposure to Apo-2 ligand. Apoptosis was determined using FACS analysis essentially as described above in Example 4. However, B cells were gated by anti-CD19/CD20 antibodies (Jackson Immunoresearch), and T cells were gated by anti-CD4/CD8 antibodies (Jackson Immunoresearch). The results are shown in Table 2 below, representing means ±SE of independent experiments [B lymphocytes—9 experiments; T lymphocytes—8 experiments; T lymphocytes plus IL-2-5 experiments], in which 50,000 cells were analyzed per data point. Statistical analysis was performed using the student t-test. In Table 2, a=p<0.05 and b=p<0.02 relative to the respective control.

[11] = test system: 9D cells; assay: Internucleosomal DNA fragmentation, 9D cells; type: cell-based, human; conditions: 6 hours, Apo-2 ligand 3 μg/ml
Protocol: as §5

[12] = test system: HeLa (human cervical carcinoma); assay: Apoptosis by FACS, HeLa cells; type: cell-based
Protocol: as §1, §2

[13] = test system: 9D cells (EBV-transformed human peripheral blood B cells); assay: Apoptosis by FACS (PI / FITC-annexin V), 9D cells; type: cell-based; conditions: 24 hours, CH11 1 μg/ml
Protocol: as §3, §4

[14] = test system: peripheral blood T lymphocytes; assay: Apoptosis by FACS, peripheral blood T cells; type: cell-based, human; conditions: for % apoptotic cells: Apo-2L 3 μg/ml, mean ±SE
[15] = Apo-2 ligand as compared to CH11 anti-Apo-1 antibody

Substance: Apo-2L: purified, soluble recombinant human Apo-2 ligand: His10-tagged residues 114-281 of SEQ ID NO:1, expressed in baculovirus-infected Sf9 cells (Example 3)
- % apoptotic cells ([1]; 24 hours, Apo-2L 3 μg/ml, CH11 1 μg/ml, control 16.5): 74.6%
- sensitivity to induction of apoptosis [1, 15]: markedly more sensitive
- sensitivity to induction of apoptosis [2]: quite sensitive
- % apoptotic cells ([2]; 24 hours, Apo-2L 3 μg/ml, CH11 1 μg/ml, control 8.6): 80.7%
- % apoptotic cells ([3]; Apo-2L 3 μg/ml, control 5.9): 77.0%
- induction of apoptosis (annexin V binding, PI uptake), in words ([3]; Apo-2 ligand 3 μg/ml): induced a similar response
- % apoptotic cells ([4]; 24 hours, Apo-2L 3 μg/ml, CH11 1 μg/ml, control 3.6): 62.3%
- sensitivity to induction of apoptosis [4, 15]: markedly more sensitive
- half-maximal activation of apoptosis ([5]; 24 hours, specific apoptosis (control subtracted)): approximately 0.1 μg/ml
- EC50 ([5]; 24 hours, specific apoptosis (control subtracted), read-out: half-maximal activation of apoptosis): ~1 nM
- time to maximal levels of cell death ([5]; Apo-2 ligand 3 μg/ml, 0 to 50 hours): ≤ 24 h
- % apoptotic cells ([6]; 24 hours, Apo-2L 3 μg/ml, CH11 1 μg/ml, control 39.9): 47.3%
- sensitivity to induction of apoptosis [6, 15]: equally sensitive
- % apoptotic cells ([7]; Apo-2L 3 μg/ml, control 35.9): 73.4%
- induction of apoptosis (annexin V binding, PI uptake), in words ([7]; Apo-2 ligand 3 μg/ml): induced a similar response
- sensitivity to induction of apoptosis [8]: resistant
- % apoptotic cells ([8]; 24 hours, Apo-2L 3 μg/ml, CH11 1 μg/ml, control 12.3): 12.2%
- internucleosomal DNA fragmentation [9]: induced internucleosomal DNA fragmentation
- induction of apoptosis, in words ([10]; B cells activated by LPS): induced significant apoptosis
- % apoptotic cells ([10]; B lymphocytes + LPS 1 μg/ml, control 44.8 ± 2.8): 55.9%
- % apoptotic cells ([10]; B lymphocytes, no treatment, 9 experiments, control 40.1 ± 4.1): 53.2%
- induction of apoptosis, in words ([10]; unstimulated B cells): induced significant apoptosis
- internucleosomal DNA fragmentation [11]: induced internucleosomal DNA fragmentation
- % apoptotic cells ([12]; 24 hours, Apo-2L 3 μg/ml, CH11 1 μg/ml, control 5.3): 18.6%
- sensitivity to induction of apoptosis [12, 15]: equally sensitive
- % apoptotic cells ([13]; Apo-2L 3 μg/ml, control 22.5): 92.4%
- induction of apoptosis (annexin V binding, PI uptake), in words ([13]; Apo-2 ligand 3 μg/ml): induced apoptosis
- induction of apoptosis, in words ([14]; T cells activated with PMA and ionomycin): induced significant apoptosis
- % apoptotic cells ([14]; T lymphocytes + PMA 10 ng/ml / ionomycin 1 μg/ml, 3 days, control 40.3 ± 4.4): 54.2%
- % apoptotic cells ([14]; T lymphocytes, IL-2 (50 U/ml, 3-5 days) pretreatment, 5 experiments, control 13.7 ± 1.2): 34.5%
- % apoptotic cells ([14]; T lymphocytes, no treatment, 3 days, 8 experiments, control 6.3 ± 0.6): 8.2 ± 0.8%
- sensitization to Apo-2 ligand-induced death, in words ([14]; peripheral T cells pretreated with IL-2): did sensitize
